The subject of assay [1] is 16- to 32-cell pre-compacted (in vitro-produced) embryos. Description: Culture of pre-compacted (in vitro-produced) embryos with PGF2α or PGE2. The class given is cell-based, bovine. The settings on record: vs control. As for the experimental part:
Embryos are produced by a modified protocol for in vitro production of embryos described by Edwards and Hansen, Biol. Reprod. 55:340-346 (1996). Pre-compacted 16- to 32-cell stage embryos are rapidly washed in KSOM media (Biggers, J. D. 1991. J. Reprod. Fertil. 91:543) supplemented with polyvinyl alcohol (PVA) 3 mg/ml (0.3%). The embryos are evaluated for quality (normal shape, defined blastomeres, extruded blastomeres, cytoplasmic fragmentation, even cytoplasm), are evenly sorted in four groups (formed by embryos of good quality), are transferred to experimental treatments in a 4-well plate as described below, and are returned to the incubator (5.5% CO2, 7% O2, and 87.5% N2 at 38.5° C.). Embryos remain in each treatment for 4 additional days. Embryo development is assessed using IETS (International Embryo Transfer Society) guidelines for classification of bovine embryos.
Dilutions (i.e., treatments) of PGF2α (Cayman Chemical Co.; Ann Arbor, Mich.) are prepared to obtain 0, 1, 10 and 100 ng/mL. Treatments are placed in each well of a 4-well plate (500 μL/well) and equilibrated in the incubator (5.5% CO2, 7% O2, and 87.5% N2 at 38.5° C.) for at least 5 h prior to embryo placement. […]
Data are analyzed to test for blastocyst development and hatching rates using an incomplete block design and a randomized block design, respectively. […]

Assay [2] deals with Pre-compacted 16- to 32-cell stage bovine embryos. Particulars: 1 ng/ml PGF on days 4 to 6 (48 h culture).
Method: Pre-compacted 16- to 32-cell stage bovine embryos (day 4 post fertilization) are washed in KSOM-PVA and divided into four groups, each of which is cultured for 48 hours in KSOM-PVA containing one of the following: (1) 1000 nM AL-8810, n=95 (AL-8810 group); (2) 1 ng/ml PGF, n=91 (PGF group); (3) 1000 nM AL-8810+1 ng/ml PGF, n=90 (AL-8810+PGF group); or (4) KSOM-PVA without AL-8810 or PGF, n=84 (Control group).
Following the 48 hour culture, embryos from each group are placed in HEPES-TALP and embryonic development is assessed by a technician who is uninformed of the treatments of the embryos in each group. Embryos from each treatment group are washed in KSOM-PVA and transferred to a 4-well plate with KSOM-PVA for further culture until day 8 post fertilization, when embryonic development is again assessed.
For assay [3], the system named is compacted (in vivo-derived) morula stage embryos. The assay can be described thus: Culture of compacted (in vivo-derived) morula-stage embryos with PGF2α. The class given is cell-based, bovine. The settings on record: 0.1, 1 or 10 ng/mL PGF2α for 24 h. On the procedure:
In vivo-derived glycerol-frozen morula-stage bovine embryos are thawed utilizing a three-step glycerol removal procedure. After washing, embryos are allowed to regain normal morphology for 30 min in Vigro holding medium and are sorted by stage of development and quality according with the IETS guidelines for classification of bovine embryos. For this study, a total of 4 replicates are used.
Schrick, et al, Biol. Reprod. 49:617-621 (1993) reported 0.64 ng/mL of PGF2α in flush media from short cycle cows and a negative association of PGF2α concentration with embryo quality. Based on these findings, concentrations of 0 (control, KSOM-PVA), 0.1, 1, and 10 ng/mL of PGF2α in culture medium are selected as treatments. Each treatment is placed in a different well of a 4-well plate (500 μL/well) and then maintained in the incubator (5.5% CO2, 7% O2, and 87.5% N2 at 38.5° C.) for at least 5 h before placement of embryos to allow equilibration of medium. […]
Morula embryos (Stage 4) of quality grade 1, 2 or 3 are rapidly washed four times in KSOM-PVA and randomly assigned to one of four treatments: 1) control (n=110); 2) 0.1 ng/mL PGF2α (n=108); 3) 1 ng/mL PGF2α (n=109), 4) 10 ng/mL PGF2α (n=109) and are placed in the incubator (5.5% CO2, 7% O2, and 87.5% N2 at 38.5° C.). […] Data are analyzed as in Example 1.a.

The subject of assay [4] is progestin-supplemented cows. The settings on record: cited from earlier work.
Another assay relates to recipient cattle. Particulars: intramuscular injection immediately prior to or after non-surgical embryo transfer; vs controls; cited from earlier work.

The values below come from patent publication US8715155B2, “Embryo development and survival” (University of Tennessee Research Foundation, priority 2005, dated 2014).

Read-outs that look alike come from different tables or passages of the source.

As to `CCCCC[C@H](O)/C=C/[C@H]1[C@H](O)CC(=O)[C@@H]1C/C=C\CCCC(=O)O` [PGE2, Prostaglandin E2], the blastocyst development result in assay [1] (5 ng/mL PGE2 in medium, P>0.10) is “does not differ between control and PGE2 treatments”.
Turning to prostaglandin F2α [PGF2α], the “percentage of embryos reaching blastocyst stage on day 8” value in assay [2] was “decreases the percentage of embryos reaching blastocyst stage on day 8”. In addition, the “development at least two stages beyond morula (IETS guidelines)” value in assay [3] (then 48 h without, P>0.10) was “does not differ between treatments”. Also, the hatching rates result in assay [3] (vs control, P=0.05) is listed as “decreased hatching rates when compared to control”. Besides, the pregnancy rates entry is reported as “decreased pregnancy rates compared to saline controls” in assay [4] (PGF2α administered between days 5 and 8 of pregnancy, vs saline controls); “no effect on pregnancy rates” in assay [4] (PGF2α administered on days 10 to 13 or days 15 to 18). Further, the blastocyst development result in assay [1] (1, 10 or 100 ng/mL PGF2α in medium, 4 days culture, P=0.002) is given as “reduced blastocyst development when compared to control”.
Regarding `Cc1c(Nc2ncccc2C(=O)O)cccc1C(F)(F)F` [flunixin meglamine], the pregnancy rates entry with recipient cattle was “Pregnancy rates were significantly higher”.
